In PubChem BioAssay AID256 (DTP/NCI, 2004) one finds T/C data, which are given here for 20 compounds.

Where “and” joins values, the source holds several entries; their conditions need not be identical. Equal entries are not always repeated. Toxic doses and inconclusive results are not listed.

This test has as its system CD2F1 mice, L1210 leukemia ip, survival T/C. The test can be described thus: NCI In Vivo Anticancer Drug Screen. Data for tumor model L1210 Leukemia (intraperitoneal) in CD2F1 (CDF1) mice. The following applies: higher = longer survival. The essentials:
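Activity against a transplanted murine tumor was judged by comparing the compound group with a vehicle group. The outcome in the treated animals was divided by that in the controls.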

The mark [1] stands for this setting: endpoint: mean survival time, dose: 50.0 mg/kg/injection, schedule: Q01DX009 (ip), vehicle: saline.
[2] abbreviates: endpoint: mean survival time, dose: 100.0 mg/kg/injection, schedule: Q01DX009 (ip), vehicle: saline.
Setting [3] is: endpoint: mean survival time, dose: 100.0 mg/kg/injection, schedule: Q04DX003 (ip), vehicle: saline with Tween-80.
Where [4] appears, read: endpoint: mean survival time, dose: 200.0 mg/kg/injection, schedule: Q04DX003 (ip), vehicle: saline with Tween-80.
Setting [5] is: endpoint: mean survival time, dose: 400.0 mg/kg/injection, schedule: Q04DX003 (ip), vehicle: saline with Tween-80.
[6] abbreviates: endpoint: mean survival time, dose: 25.0 mg/kg/injection, schedule: Q04DX002 (ip), vehicle: saline with Tween-80.
The mark [7] stands for this setting: endpoint: mean survival time, dose: 50.0 mg/kg/injection, schedule: Q04DX002 (ip), vehicle: saline with Tween-80.
[8] abbreviates: endpoint: mean survival time, dose: 100.0 mg/kg/injection, schedule: Q04DX002 (ip), vehicle: saline with Tween-80.
Setting [9] is: endpoint: mean survival time, dose: 100.0 mg/kg/injection, schedule: Q04DX003 (ip), vehicle: saline.
[10] abbreviates: endpoint: mean survival time, dose: 200.0 mg/kg/injection, schedule: Q04DX003 (ip), vehicle: saline.

Regarding `CN(C)CCCNc1c2ccccc2nc2cccc([N+](=O)[O-])c12`, the T/C reads like this: (endpoint: mean survival time, dose: 0.2 mg/kg/injection, schedule: Q04DX002 (ip), vehicle: saline + alcohol) 103 % of control; (endpoint: mean survival time, dose: 0.4 mg/kg/injection, schedule: Q04DX002 (ip), vehicle: saline + alcohol) 103 % of control; (endpoint: mean survival time, dose: 0.8 mg/kg/injection, schedule: Q04DX002 (ip), vehicle: saline + alcohol) 100 % of control.
Take `CCN(C(=O)CCl)C(C)(C)C(SSSC(c1ccc(Cl)cc1)C(C)(C)N(CC)C(=O)CCl)c1ccc(Cl)cc1` (stereo not given): the T/C reads like this: (endpoint: mean survival time, dose: 12.5 mg/kg/injection, schedule: Q01DX009 (ip), vehicle: saline) 96 % of control; (endpoint: mean survival time, dose: 25.0 mg/kg/injection, schedule: Q01DX009 (ip), vehicle: saline) 102 % of control; under setting [1], 95 % of control and 106 % of control; under setting [2], 100 % of control.
Regarding `Cn1c2nc(=O)n(-c3ccccc3)c(=O)c-2nc2c1CCCC2`, the T/C is 100 % of control (endpoint: mean survival time, dose: 3.12 mg/kg/injection, schedule: Q01DX009 (ip), vehicle: saline with Tween-80); 100 % of control (endpoint: mean survival time, dose: 6.25 mg/kg/injection, schedule: Q01DX009 (ip), vehicle: saline with Tween-80); 98 % of control (endpoint: mean survival time, dose: 12.5 mg/kg/injection, schedule: Q01DX009 (ip), vehicle: saline with Tween-80); 101 % of control (endpoint: mean survival time, dose: 25.0 mg/kg/injection, schedule: Q01DX009 (ip), vehicle: saline with Tween-80); 100 % of control (endpoint: mean survival time, dose: 50.0 mg/kg/injection, schedule: Q01DX009 (ip), vehicle: saline with Tween-80); 106 % of control (endpoint: mean survival time, dose: 100.0 mg/kg/injection, schedule: Q01DX009 (ip), vehicle: saline with Tween-80).
On to `CC(=O)Nc1ccc(C(=O)CCl)cc1`, for which, under setting [3], the T/C was 90 % of control.
On to `CCCOc1ccc(/C=N\N=C\c2ccc(OCCC)cc2)cc1`, for which the T/C under setting [3] was 89 % of control, the T/C under setting [4] is 89 % of control and the T/C under setting [5] was 91 % of control.
On to `Cc1ccc(S(=O)(=O)ON/N=C2\C(=O)C3CCC2C3)cc1` (stereo not given), for which the T/C runs as follows: under setting [6], 100 % of control; under setting [7], 96 % of control; under setting [8], 112 % of control.
Take `O=Cc1ccc(OCCCOc2ccc([N+](=O)[O-])cc2)cc1`: the T/C was 102 % of control (endpoint: mean survival time, dose: 100.0 mg/kg/injection, schedule: Q04DX002 (ip), vehicle: Klucel (hydroxypropylcellulose) (HPC)); 94 % of control (endpoint: mean survival time, dose: 200.0 mg/kg/injection, schedule: Q04DX002 (ip), vehicle: Klucel (hydroxypropylcellulose) (HPC)); 102 % of control (endpoint: mean survival time, dose: 400.0 mg/kg/injection, schedule: Q04DX002 (ip), vehicle: Klucel (hydroxypropylcellulose) (HPC)).
Take `c1ccc(OCC2(N3CCCCC3)CCCC2)cc1`: the T/C is, setting by setting: under setting [6], 103 % of control; under setting [7], 108 % of control.
Consider `CCCC(CCC)=NCCN=C(CCC)CCC`, for which the T/C reads like this: (endpoint: mean survival time, dose: 100.0 mg/kg/injection, schedule: Q04DX003 (ip), vehicle: saline sonified) 97 % of control; (endpoint: mean survival time, dose: 200.0 mg/kg/injection, schedule: Q04DX003 (ip), vehicle: saline sonified) 97 % of control; (endpoint: mean survival time, dose: 400.0 mg/kg/injection, schedule: Q04DX003 (ip), vehicle: saline sonified) 97 % of control.
As for `CCCCCCCCCCCCCCCC(=O)Nc1c(C)cc(C)cc1C`, the T/C by setting is: under setting [8], 103 % of control; (endpoint: mean survival time, dose: 200.0 mg/kg/injection, schedule: Q04DX002 (ip), vehicle: saline with Tween-80) 111 % of control; (endpoint: mean survival time, dose: 400.0 mg/kg/injection, schedule: Q04DX002 (ip), vehicle: saline with Tween-80) 91 % of control.
As for `CCCCNP1(NCCCC)=NP(NCCCC)(NCCCC)=NP(NCCCC)(NCCCC)=NP(NCCCC)(NCCCC)=N1`, the T/C runs as follows: (endpoint: median survival time, dose: 12.5 mg/kg/injection, schedule: Q01DX009 (ip), vehicle: saline with Tween-80) 107 % of control; (endpoint: median survival time, dose: 25.0 mg/kg/injection, schedule: Q01DX009 (ip), vehicle: saline with Tween-80) 107 % of control; (endpoint: median survival time, dose: 50.0 mg/kg/injection, schedule: Q01DX009 (ip), vehicle: saline with Tween-80) 97 % of control.
On to `CC(=O)Nc1ccc2nc3ccc(NC(C)=O)cc3[n+](-c3ccccc3)c2c1`, for which the T/C was 98 % of control (endpoint: mean survival time, dose: 16.0 mg/kg/injection, schedule: Q01DX008 (iv), vehicle: saline); 118 % of control (endpoint: mean survival time, dose: 25.0 mg/kg/injection, schedule: Q03DX003 (ip), vehicle: saline); 123 % of control (endpoint: mean survival time, dose: 25.0 mg/kg/injection, schedule: Q04DX003 (ip), vehicle: saline); 100 % of control (endpoint: mean survival time, dose: 32.0 mg/kg/injection, schedule: Q01DX008 (iv), vehicle: saline); 155 % of control (endpoint: mean survival time, dose: 50.0 mg/kg/injection, schedule: Q01DX007 (ip), vehicle: saline); 157 % of control under setting [1]. The T/C reads like this: (endpoint: mean survival time, dose: 64.0 mg/kg/injection, schedule: Q01DX008 (iv), vehicle: saline) 115 % of control; (endpoint: mean survival time, dose: 100.0 mg/kg/injection, schedule: Q01DX007 (ip), vehicle: saline) 183 % of control; under setting [2], 155 % of control.
As for `c1ccc(OP(Oc2ccccc2)Oc2ccccc2)cc1`, the T/C was 98 % of control (endpoint: mean survival time, dose: 50.0 mg/kg/injection, schedule: Q04DX003 (ip), vehicle: saline); 104 % of control under setting [9]; 96 % of control under setting [10].
As for `N#CC(C#N)=Cc1cc2ccccc2c2ccccc12`, the T/C is 109 % of control under setting [3], 97 % of control under setting [4] and 101 % of control under setting [5].
For `CC[C@]1(O)C[C@H]2CN(CCc3c([nH]c4ccccc34)[C@@](C(=O)OC)(c3cc4c(cc3OC)N(C)[C@H]3[C@@](O)(C(=O)OC)[C@H](OC(C)=O)[C@]5(CC)C=CCN6CC[C@]43[C@@H]65)C2)C1`, the T/C reads like this: (endpoint: mean survival time, dose: 0.03 mg/kg/injection, schedule: Q01DX009 (ip), vehicle: water) 92 % of control; (endpoint: mean survival time, dose: 0.06 mg/kg/injection, schedule: Q01DX009 (ip), vehicle: water) 97 % of control; (endpoint: mean survival time, dose: 0.13 mg/kg/injection, schedule: Q01DX009 (ip), vehicle: water) 95 % of control; (endpoint: mean survival time, dose: 0.25 mg/kg/injection, schedule: Q01DX007 (ip), vehicle: water) 120 % of control; (endpoint: mean survival time, dose: 0.5 mg/kg/injection, schedule: Q04DX003 (ip), vehicle: water) 120 % of control; (endpoint: mean survival time, dose: 1.0 mg/kg/injection, schedule: Q01DX007 (ip), vehicle: water) 91 % of control. The T/C is, setting by setting: (endpoint: mean survival time, dose: 1.0 mg/kg/injection, schedule: Q01DX009 (ip), vehicle: saline) 90 % of control and 91 % of control; (endpoint: mean survival time, dose: 1.0 mg/kg/injection, schedule: Q01DX009 (ip), vehicle: water) 86 % of control; (endpoint: mean survival time, dose: 1.0 mg/kg/injection, schedule: Q04DX003 (ip), vehicle: water) 120 % of control; (endpoint: median survival time, dose: 0.83 mg/kg/injection, schedule: Q01DX009 (ip), vehicle: saline) 110 % of control; (endpoint: median survival time, dose: 1000.0 micrograms/kg/injection, schedule: Q01DX009 (ip), vehicle: saline) 98 % of control.
As for `Cc1ccc(Nc2nc(N)nc(N)c2N=O)cc1C`, the T/C is 90 % of control (endpoint: mean survival time, dose: 50.0 mg/kg/injection, schedule: Q01DX001 (ip), vehicle: Klucel (hydroxypropylcellulose) (HPC)); 87 % of control (endpoint: mean survival time, dose: 100.0 mg/kg/injection, schedule: Q01DX001 (ip), vehicle: Klucel (hydroxypropylcellulose) (HPC)); 98 % of control (endpoint: mean survival time, dose: 200.0 mg/kg/injection, schedule: Q01DX001 (ip), vehicle: Klucel (hydroxypropylcellulose) (HPC)).
With `CCCNC(=O)Oc1c(C(C)C)ccc(C)c1Cl`, the T/C under setting [9] was 98 % of control; the T/C under setting [10] is 101 % of control; the T/C (endpoint: mean survival time, dose: 400.0 mg/kg/injection, schedule: Q04DX003 (ip), vehicle: saline) is 95 % of control.
For `CC(=O)NC(=O)CC(O)(c1ccccc1)c1ccccc1`, the T/C is 91 % of control (endpoint: mean survival time, dose: 200.0 mg/kg/injection, schedule: Q01DX001 (ip), vehicle: saline with Tween-80) and 88 % of control (endpoint: mean survival time, dose: 400.0 mg/kg/injection, schedule: Q01DX001 (ip), vehicle: saline with Tween-80).
Turning to `Cc1ccc(NC(=O)OCCSC(=O)COc2ccc(Cl)cc2Cl)cc1`, the T/C is 98 % of control under setting [3], 98 % of control under setting [4] and 93 % of control under setting [5].
On to `O=C1CCCCCC2=NC12` (stereo not given), for which the T/C is 97 % of control (endpoint: median survival time, dose: 6.25 mg/kg/injection, schedule: Q01DX009 (ip), vehicle: Klucel (hydroxypropylcellulose) (HPC)); 102 % of control (endpoint: median survival time, dose: 12.5 mg/kg/injection, schedule: Q01DX009 (ip), vehicle: Klucel (hydroxypropylcellulose) (HPC)); 105 % of control (endpoint: median survival time, dose: 25.0 mg/kg/injection, schedule: Q01DX009 (ip), vehicle: Klucel (hydroxypropylcellulose) (HPC)); 111 % of control (endpoint: median survival time, dose: 50.0 mg/kg/injection, schedule: Q01DX009 (ip), vehicle: Klucel (hydroxypropylcellulose) (HPC)).
